Here are results for seven compounds from US5106873A, “ACAT inhibitors” (priority 1990, dated 1992).

Structures are written as SMILES.

Usually IC50 stands for the concentration at which inhibition is half-maximal. A lower IC50 goes with greater potency.

The target of assay [1] is T1, acyl-CoA: cholesterol acyltransferase (ACAT) (Oryctolagus cuniculus, UniProt G1SFD9).
T1 construct: tissue preparation containing rabbit intestinal microsomes; from tissue; host or cells: rabbit intestinal microsomes
T1 sequence (G1SFD9 1-524): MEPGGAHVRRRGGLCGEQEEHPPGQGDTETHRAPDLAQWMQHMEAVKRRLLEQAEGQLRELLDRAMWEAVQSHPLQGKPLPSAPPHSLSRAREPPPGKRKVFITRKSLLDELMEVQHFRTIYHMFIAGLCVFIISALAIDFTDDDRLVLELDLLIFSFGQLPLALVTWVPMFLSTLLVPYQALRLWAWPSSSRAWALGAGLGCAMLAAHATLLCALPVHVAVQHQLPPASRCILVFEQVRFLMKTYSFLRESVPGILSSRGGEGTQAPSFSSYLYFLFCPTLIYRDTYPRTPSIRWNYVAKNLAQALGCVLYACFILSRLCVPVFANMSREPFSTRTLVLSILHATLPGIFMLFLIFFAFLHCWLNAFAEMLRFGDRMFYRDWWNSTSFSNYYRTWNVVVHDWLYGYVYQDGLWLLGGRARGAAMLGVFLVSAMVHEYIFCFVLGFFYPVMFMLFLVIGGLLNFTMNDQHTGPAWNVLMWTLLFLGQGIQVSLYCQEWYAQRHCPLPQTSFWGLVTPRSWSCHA
The experiment in a line: In vitro inhibition of ACAT (acylation of cholesterol by oleic acid) in rabbit intestinal microsomes. Format: biochemical. The note with it: radiolabeled oleic acid. The method, then: The ability of representative compounds of the present invention to inhibit ACAT was measured using an in vitro test more fully described in Field, F. J. and Salone, R. G., Biochemica et Biophysica, 712:557-570 (1982). The test assesses the ability of a test compound to inhibit the acylation of cholesterol by oleic acid by measuring the amount of radiolabeled cholesterol […] formed from radiolabeled oleic acid in a tissue preparation containing rabbit intestinal microsomes. The data appear in Table 1 where they are expressed in IC50 values; i.e., the concentration of test compound required to inhibit 50% expression of the enzyme.

Assay [2] can be described thus: In vivo screen designated APCC, cholesterol in rats fed PCC diet with cholic acid. Details: species or system male Sprague-Dawley rats. The conditions noted are these: blood cholesterol; PCC diet with 1% or 0.5% cholic acid; dosed at 4 PM, sacrificed at 8 AM; dose not stated. The source says:
In one in vivo screen designated APCC, male Sprague-Dawley rats (200 to 225 g) were randomly divided into treatment groups and dosed at 4 PM with either vehicle (CMC/Tween) or suspensions of compounds in vehicle. The normal, chow diet was then replaced with the PCC diet with either 1% or 0.5% cholic acid, as indicated. The rats consumed this diet ad libitum during the night and were sacrificed at 8 AM to obtain blood samples for cholesterol analysis using standard procedures. Statistical differences between mean cholesterol values for the same vehicle were determined using analysis of variance followed by Fisher's least significant test.

Consider `COc1ccc(C(=O)NC2(CNC(=O)Nc3c(C(C)C)cccc3C(C)C)CCCC2)cc1` [Example 5, N-[1-[[[[[2,6-bis(1-methylethyl)phenyl]amino]carbonyl]amino]methyl]cyclopentyl]-4-methoxybenzamide], for which the IC50 in assay [1] came out at 510 nM. That is a sub-micromolar value.
In the case of `COc1ccc(CN[C@H](CNC(=O)Nc2c(C(C)C)cccc2C(C)C)Cc2ccccc2)cc1` [Example 9, (S)-(-)-N-[2,6-Bis(1-methylethyl)phenyl]-N'-[2-[[(4-methoxyphenyl)methyl]amino]-3-phenylpropyl]urea], in assay [2], the “% Change” value was -33%.
Take `COc1ccc(CN[C@H](CNC(=O)Nc2c(C(C)C)cccc2C(C)C)CC(C)C)cc1` [Example 6, (S)-(-)-N-[2,6-bis(1-methylethyl)phenyl]-N'-[2-[[(4-methoxyphenyl)methyl]amino]-4-methyl-pentyl]urea]: in assay [1], the IC50 came out at 57 nM. Besides, the “% Change” value in assay [2] is -25%.
For `COc1ccc(CN[C@@H](CCSC)CNC(=O)Nc2c(C(C)C)cccc2C(C)C)cc1` [Example 7, (S)-(-)-N-[2,6-Bis(1-methylethyl)phenyl]-N'-[2-[[(4-methoxyphenyl)methyl]amino]-4-(methylthio)butyl]urea], in assay [2], the “% Change” value was -31%.
Take `COc1ccc(CN[C@H](CNC(=O)Nc2c(C(C)C)cccc2C(C)C)C(C)C)cc1` [Example 8, (S)-(-)-N[2,6-Bis(1-methylethyl)phenyl]-N'-[2-[[(4-methoxyphenyl]methyl]amino]-3-methylbutyl]urea]: the IC50 in assay [1] is 85 nM. The “% Change” value in assay [2] was -17%.
The compound `CCCC(CCC)(CNC(=O)Nc1c(C(C)C)cccc1C(C)C)NC(=O)c1ccc(OC)cc1` [Example 4] gave an IC50 in assay [1] of 96 nM.
Regarding `CC(C)c1cccc(C(C)C)c1NC(=O)NC[C@H](Cc1ccccc1)NCc1ccccc1O` [Example 10], in assay [2], the “% Change” value is on record as -46%.
